Assay results: the supplement of paper PMC10307832

Legend:
Test in all cases: relative viability (nuclei count vs DMSO), 5 days (fraction); higher = more cells survive
HARA = tested on: HARA
Outline: (§1)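 Values are medians from duplicate plates. Each reflects relative viability, defined as the nuclei count of treated wells over that of vehicle wells. Lung cancer cell lines in 1536-well plates were pin-tool dosed one day after seeding with one drug alone or with a fixed anchor-drug dose plus five library-drug doses (not always all listed) in √10 steps, then fixed, stained and imaged at 4× after 5 days.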

NCI-H1915 = tested on: NCI-H1915
Outline: as §1

NCI-H1395 = tested on: NCI-H1395
Outline: as §1

EMC-BAC-2 = tested on: EMC-BAC-2
Outline: as §1

NCI-H1437 = tested on: NCI-H1437
Outline: as §1

NCI-H460 = tested on: NCI-H460
Outline: as §1

NCI-H522 = tested on: NCI-H522
Outline: as §1

LCLC-103H = tested on: LCLC-103H
Outline: as §1

CAL-12T = tested on: CAL-12T
Outline: as §1

NCI-H727 = tested on: NCI-H727
Outline: as §1

NCI-H23 = tested on: NCI-H23
Outline: as §1

SW 1573 = tested on: SW 1573
Outline: as §1

COR-L 105 = tested on: COR-L 105
Outline: as §1

A-427 = tested on: A-427
Outline: as §1

NCI-H2228 = tested on: NCI-H2228
Outline: as §1

NCI-H2009 = tested on: NCI-H2009
Outline: as §1

HCC-366 = tested on: HCC-366
Outline: as §1

HCC-827 = tested on: HCC-827
Outline: as §1

HOP-62 = tested on: HOP-62
Outline: as §1

NCI-H1755 = tested on: NCI-H1755
Outline: as §1

SK-LU-1 = tested on: SK-LU-1
Outline: as §1

SMILES: COc1cc2nccc(Oc3ccc(NC(=O)Nc4cc(C)on4)c(Cl)c3)c2cc1OC [Tivozanib] + O=C(CCCCCCC(=O)Nc1ccccc1)NO [Vorinostat] (partner 1 µM)
- relative viability (HARA; first compound 0.005 µM): 0.422
- relative viability (HARA; first compound 0.01581 µM): 0.456
- relative viability (HARA; first compound 0.05 µM): 0.594
- relative viability (HARA; first compound 0.1581 µM): 0.563
- relative viability (HARA; first compound 0.5 µM): 0.507
- relative viability (NCI-H1915; first compound 0.005 µM): 0.488
- relative viability (NCI-H1915; first compound 0.01581 µM): 0.503
- relative viability (NCI-H1915; first compound 0.05 µM): 0.567
- relative viability (NCI-H1915; first compound 0.1581 µM): 0.391
- relative viability (NCI-H1915; first compound 0.5 µM): 0.399
- relative viability (NCI-H1395; first compound 0.005 µM): 0.476
- relative viability (NCI-H1395; first compound 0.01581 µM): 0.747
- relative viability (NCI-H1395; first compound 0.05 µM): 0.932
- relative viability (NCI-H1395; first compound 0.1581 µM): 0.58
- relative viability (NCI-H1395; first compound 0.5 µM): 0.424
- relative viability (EMC-BAC-2; first compound 0.005 µM): 0.281
- relative viability (EMC-BAC-2; first compound 0.01581 µM): 0.548
- relative viability (EMC-BAC-2; first compound 0.05 µM): 0.5
- relative viability (EMC-BAC-2; first compound 0.1581 µM): 0.345
- relative viability (EMC-BAC-2; first compound 0.5 µM): 0.201
- relative viability (NCI-H1437; first compound 0.005 µM): 0.769
- relative viability (NCI-H1437; first compound 0.01581 µM): 0.876
- relative viability (NCI-H1437; first compound 0.05 µM): 0.815
- relative viability (NCI-H1437; first compound 0.1581 µM): 0.746
- relative viability (NCI-H1437; first compound 0.5 µM): 0.712
- relative viability (NCI-H460; first compound 0.005 µM): 0.651
- relative viability (NCI-H460; first compound 0.01581 µM): 0.741
- relative viability (NCI-H460; first compound 0.05 µM): 0.748
- relative viability (NCI-H460; first compound 0.1581 µM): 0.76
- relative viability (NCI-H460; first compound 0.5 µM): 0.569
- relative viability (NCI-H522; first compound 0.005 µM): 1
- relative viability (NCI-H522; first compound 0.01581 µM): 1
- relative viability (NCI-H522; first compound 0.05 µM): 0.822
- relative viability (NCI-H522; first compound 0.1581 µM): 0.721
- relative viability (NCI-H522; first compound 0.5 µM): 0.809
- relative viability (LCLC-103H; first compound 0.005 µM): 0.668
- relative viability (LCLC-103H; first compound 0.01581 µM): 0.809
- relative viability (LCLC-103H; first compound 0.05 µM): 0.86
- relative viability (LCLC-103H; first compound 0.1581 µM): 0.824
- relative viability (LCLC-103H; first compound 0.5 µM): 0.656
- relative viability (CAL-12T; first compound 0.005 µM): 0.842
- relative viability (CAL-12T; first compound 0.01581 µM): 0.744
- relative viability (CAL-12T; first compound 0.05 µM): 0.891
- relative viability (CAL-12T; first compound 0.1581 µM): 0.539
- relative viability (CAL-12T; first compound 0.5 µM): 0.473
- relative viability (NCI-H727; first compound 0.005 µM): 1.15
- relative viability (NCI-H727; first compound 0.01581 µM): 1.26
- relative viability (NCI-H727; first compound 0.05 µM): 1.3
- relative viability (NCI-H727; first compound 0.1581 µM): 0.841
- relative viability (NCI-H727; first compound 0.5 µM): 1.22
- relative viability (NCI-H23; first compound 0.005 µM): 0.522
- relative viability (NCI-H23; first compound 0.01581 µM): 0.484
- relative viability (NCI-H23; first compound 0.05 µM): 0.6
- relative viability (NCI-H23; first compound 0.5 µM): 0.375
- relative viability (SW 1573; first compound 0.005 µM): 0.614
- relative viability (SW 1573; first compound 0.01581 µM): 0.935
- relative viability (SW 1573; first compound 0.05 µM): 0.677
- relative viability (SW 1573; first compound 0.1581 µM): 0.506
- relative viability (SW 1573; first compound 0.5 µM): 0.281
- relative viability (COR-L 105; first compound 0.005 µM): 0.696
- relative viability (COR-L 105; first compound 0.01581 µM): 0.743
- relative viability (COR-L 105; first compound 0.05 µM): 0.801
- relative viability (COR-L 105; first compound 0.1581 µM): 0.821
- relative viability (COR-L 105; first compound 0.5 µM): 0.794
- relative viability (A-427; first compound 0.005 µM): 0.741
- relative viability (A-427; first compound 0.01581 µM): 0.888
- relative viability (A-427; first compound 0.05 µM): 0.824
- relative viability (A-427; first compound 0.1581 µM): 0.857
- relative viability (A-427; first compound 0.5 µM): 0.812
- relative viability (NCI-H2228; first compound 0.005 µM): 0.606
- relative viability (NCI-H2228; first compound 0.01581 µM): 0.723
- relative viability (NCI-H2228; first compound 0.05 µM): 0.761
- relative viability (NCI-H2228; first compound 0.1581 µM): 0.599
- relative viability (NCI-H2228; first compound 0.5 µM): 0.626
- relative viability (NCI-H2009; first compound 0.005 µM): 0.623
- relative viability (NCI-H2009; first compound 0.01581 µM): 0.785
- relative viability (NCI-H2009; first compound 0.05 µM): 0.741
- relative viability (NCI-H2009; first compound 0.1581 µM): 0.738
- relative viability (NCI-H2009; first compound 0.5 µM): 0.621
- relative viability (HCC-366; first compound 0.005 µM): 0.333
- relative viability (HCC-366; first compound 0.01581 µM): 0.323
- relative viability (HCC-366; first compound 0.05 µM): 0.312
- relative viability (HCC-366; first compound 0.1581 µM): 0.305
- relative viability (HCC-366; first compound 0.5 µM): 0.244
- relative viability (HCC-827; first compound 0.005 µM): 0.69
- relative viability (HCC-827; first compound 0.01581 µM): 0.851
- relative viability (HCC-827; first compound 0.05 µM): 0.879
- relative viability (HCC-827; first compound 0.1581 µM): 0.854
- relative viability (HCC-827; first compound 0.5 µM): 0.864
- relative viability (HOP-62; first compound 0.005 µM): 0.633
- relative viability (HOP-62; first compound 0.01581 µM): 0.638
- relative viability (HOP-62; first compound 0.05 µM): 0.652
- relative viability (HOP-62; first compound 0.1581 µM): 0.376
- relative viability (HOP-62; first compound 0.5 µM): 0.434
- relative viability (NCI-H1755; first compound 0.005 µM): 0.742
- relative viability (NCI-H1755; first compound 0.01581 µM): 0.786
- relative viability (NCI-H1755; first compound 0.05 µM): 0.739
- relative viability (NCI-H1755; first compound 0.1581 µM): 0.706
- relative viability (NCI-H1755; first compound 0.5 µM): 0.587
- relative viability (SK-LU-1; first compound 0.005 µM): 0.796
- relative viability (SK-LU-1; first compound 0.01581 µM): 0.838
- relative viability (SK-LU-1; first compound 0.05 µM): 0.707
- relative viability (SK-LU-1; first compound 0.1581 µM): 0.6
- relative viability (SK-LU-1; first compound 0.5 µM): 0.729
